The values below are quoted from earlier work in US11167002B2, “Pharmaceutical composition for the treatment of malignant neoplasms including sarcoma, cancers of liver, lung, bladder, blood and cervical, treatment of infectious diseases and type 2 diabetes” (priority 2019, dated 2021).

For data set [1], the system named is Entamoeba histolytica and Giardia lamblia. As to conditions: allicin in pure form.
The next data set deals with Candida albicans. Particulars: allicin in pure form.
Data set [2] relates to Gram-negative and Gram-positive bacteria, including multidrug-resistant enterotoxigenic strains of Escherichia coli. As to conditions: allicin in pure form.
For data set [3] the following is noted: allicin in pure form.

Each structure is given as a SMILES string.

On to `C=CCS[S+]([O-])CC=C` (stereo not shown) [Allicin], for which, in data set [1], the antiparasitic activity entry is on record as “antiparasitic activity”. Besides, the antifungal activity result in the data set with Candida albicans was “antifungal activity”. Also, in data set [2], the antibacterial activity result is on record as “antibacterial activity”. For the same molecule, the antiviral activity result in data set [3] is on record as “antiviral activity”.
